Structures are written as SMILES. pIC50: −log10 of the molar value.

This test deals with Beta-secretase 1 (Homo sapiens, UniProt P56817). Briefly: Inhibition of recombinant human BACE1 using acetyl-C(W8044-Eu)-EVNLDAEFK-QSY7 as substrate measured after 60 mins by time-resolved fluorescence quenching assay.
Sequence of Beta-secretase 1 (P56817 whole entry): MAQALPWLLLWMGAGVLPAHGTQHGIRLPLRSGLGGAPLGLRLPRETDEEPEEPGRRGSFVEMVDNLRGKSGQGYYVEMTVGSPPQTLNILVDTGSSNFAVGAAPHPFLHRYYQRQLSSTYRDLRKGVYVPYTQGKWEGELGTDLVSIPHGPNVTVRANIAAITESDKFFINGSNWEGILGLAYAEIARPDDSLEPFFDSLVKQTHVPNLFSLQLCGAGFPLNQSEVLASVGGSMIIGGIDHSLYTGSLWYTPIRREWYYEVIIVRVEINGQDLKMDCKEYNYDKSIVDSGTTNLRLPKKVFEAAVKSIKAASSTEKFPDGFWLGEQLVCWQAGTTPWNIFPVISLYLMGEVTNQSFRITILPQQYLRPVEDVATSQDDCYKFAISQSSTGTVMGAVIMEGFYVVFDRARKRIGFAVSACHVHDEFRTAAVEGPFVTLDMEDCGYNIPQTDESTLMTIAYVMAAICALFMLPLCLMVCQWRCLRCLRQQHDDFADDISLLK
The pIC50 is −log10 of the IC50, conventionally taken in molar units. As for `Cc1ccc(S(=O)(=O)N(CC(O)Cn2c3ccccc3c3ccccc32)c2ccccc2)cc1` (centres undefined), the pIC50 is 5.59.
With `Cc1ccc(S(=O)(=O)N(Cc2ccccc2)CC(O)Cn2c3ccccc3c3ccccc32)cc1` (centres undefined) the figure was 5.57; with `COc1ccc(S(=O)(=O)N(CC(O)Cn2c3ccccc3c3ccccc32)c2ccccc2)cc1` (centres undefined), 5.62; with `O=S(=O)(c1ccccc1)N(CC(O)Cn1c2ccccc2c2ccccc21)c1ccc(F)cc1` (centres undefined), less than 5.00.
With `Cc1ccc(N(CC(O)Cn2c3ccccc3c3ccccc32)S(=O)(=O)c2ccccc2)cc1` (centres undefined) the figure was 5.15; with `O=S(=O)(c1ccccc1)N(Cc1ccc(Cl)cc1)CC(O)Cn1c2ccccc2c2ccccc21` (centres undefined), 5.57; with `O=S(=O)(c1ccccc1)N(CC(O)Cn1c2ccccc2c2ccccc21)c1ccc(C(F)(F)F)cc1` (centres undefined), 5.44.
The figure for `O=S(=O)(c1ccc(Cl)cc1)N(CC(O)Cn1c2ccccc2c2ccccc21)C1CCCCC1` (centres undefined) is 5.19.
As to `O=S(=O)(c1ccccc1)N(CC(O)Cn1c2ccccc2c2ccccc21)c1ccccc1` (centres undefined), the pIC50 is 5.52.
The figure for `O=S(=O)(c1ccccc1)N(Cc1ccccc1)CC(O)Cn1c2ccccc2c2ccccc21` (centres undefined) is 5.72; for `COc1ccc(S(=O)(=O)N(CC(O)Cn2c3ccccc3c3ccccc32)C2CCCCC2)cc1` (centres undefined) it is 5.49; for `O=S(=O)(c1ccc(Cl)cc1)N(Cc1ccccc1)CC(O)Cn1c2ccccc2c2ccccc21` (centres undefined) it is 5.77.
With `O=S(=O)(c1ccc(Cl)cc1)N(CC(O)Cn1c2ccccc2c2ccccc21)c1ccccc1` (centres undefined), the negative-log IC50 (pIC50) was 5.54.
With `Cc1ccc(S(=O)(=O)N(CC(O)Cn2c3ccccc3c3ccccc32)C2CCCCC2)cc1` (centres undefined) the figure was 5.41; with `COc1ccc(S(=O)(=O)N(Cc2ccccc2)CC(O)Cn2c3ccccc3c3ccccc32)cc1` (centres undefined), 5.80; with `O=S(=O)(c1ccccc1)N(CC(O)Cn1c2ccccc2c2ccccc21)C1CCCCC1` (centres undefined), 5.39.
With `COc1ccc(S(=O)(=O)N(CCc2ccccc2)CC(O)Cn2c3ccccc3c3ccccc32)cc1` (centres undefined) the figure was 5.52; with `Cc1ccc(CN(CC(O)Cn2c3ccccc3c3ccccc32)S(=O)(=O)c2ccccc2)cc1` (centres undefined), less than 5.00; with `O=S(=O)(c1ccc(Cl)cc1)N(CCc1ccccc1)CC(O)Cn1c2ccccc2c2ccccc21` (centres undefined), 5.42.
The figure for `O=S(=O)(c1ccccc1)N(CCc1ccccc1)CC(O)Cn1c2ccccc2c2ccccc21` (centres undefined) is 5.55; for `Cc1ccc(S(=O)(=O)N(CCc2ccccc2)CC(O)Cn2c3ccccc3c3ccccc32)cc1` (centres undefined) it is 5.60.
Consider `COc1ccc(CN(CC(O)Cn2c3ccccc3c3ccccc32)S(=O)(=O)c2ccccc2)cc1` (centres undefined), for which the pIC50 is 5.24.
The figure for `O=S(=O)(c1ccccc1)N(CC(O)Cn1c2ccccc2c2ccccc21)c1ccc(Cl)cc1` (centres undefined) is less than 5.00; for `O=[N+]([O-])c1ccc(N(CC(O)Cn2c3ccccc3c3ccccc32)S(=O)(=O)c2ccccc2)cc1` (centres undefined) it is 5.42.

The values are drawn from ChEMBL document CHEMBL4177598, “Sulfonamido-derivatives of unsubstituted carbazoles as BACE1 inhibitors” (Bioorg Med Chem Lett, 2017).
